Measured values taken from patent US11834424B2, “Compounds useful as chaperone-mediated autophagy modulators” (ALBERT EINSTEIN COLLEGE OF MEDICINE, priority 2018, dated 2023).

Key:
[1] = system: chaperone-mediated autophagy (CMA) in NIH 3T3 fibroblasts; assay: Photoswitchable KFERQ-Dendra CMA reporter assay in NIH 3T3 fibroblasts; assay type: cell-based
Description: The photoactivatable CMA reporter assay was constructed by inserting a sequence of 21 amino acid of Ribonuclease A bearing the CMA-targeting motif in the N-terminus multicloning site of the photoactivatable protein mCherryl or the photoswitchable protein Dendra 2.
NIH 3T3 fibroblasts were stably transduced with a photoconvertible CMA reporter, KFERQ-Dendra. were photoswitched by exposure to a […] (constant current) LED (Norlux, 405 nm) for 10 minutes and at the desired times fixed in 3% formaldehyde. Test cells were exposed to the indicated concentrations of the compounds for 12 hours (FIG. 3A) or 24 hours (FIG. 3B). Cells were imaged using high content microscopy (Operetta, Perkin Elmer) or by capturing images with an Axiovert 200 fluorescence microscope (Zeiss) with apotome and equipped with a 63/1.4 NA oil objective lens and red (ex. 570/30 nm, em. 615/30 nm), cyan (ex. 365/50 nm and em. 530/45 nm) and green (ex. 475/40 nm and em. 535/45 nm) filter sets (Chroma). Images were acquired with a high-resolution CCD camera after optical sectioning through the apotome. CMA activity measured as the average number of fluorescent puncta (CMA active lysosomes) per cell. Values are expressed relative to values in untreated cells that were assigned an arbitrary value of 1 and are mean of >2,500 cells counted per condition. The S.D. in all instances was <0.01% mean value. Table 2 provides a comparison of compounds CA39.1 and its comparative example CA39 and CA77.01 and its comparative example CA77.

[2] = in vitro; settings: human, microsomes; for CLint(mic) / Remaining (T = 60 min): 3 μM; for Remaining (T = 60 min): 1 h; for CLint scaled at 3 μM: CLint(liver)
Description: Microsome stability was determined in human, rat, and mouse, liver microsomes. Compound at 3 μM final concentration along with 0.5 mg/mL microsome protein and 1 mM NADPH was incubated for 0, 5, 15, 30 and 60 min. As a negative control, test compound was incubated with microsomes in the absence of NADPH. Samples were quenched with methanol and centrifuged for 25 min at 2500 rpm to precipitate proteins. Supernatants were analyzed (N=3) by LC-MS/MS. The In peak area ratio (compound peak area/internal standard peak area) was plotted against time and the gradient of the line determined the elimination rate constant [k=(−1)(slope)].
R^2 is the correlation coefficient of the linear regression for the determination of kinetic constant. T1/2 is the half life and CLint (mic) is the intrinsic clearance. CLint(liver)=CLint (mic)*mg microsomal protein/g liver weight*g liver weight/kg body weight. Liver weight/kg body weight is 20 g/kg for human.

| Compound | CMA activity (fluorescent puncta per cell, relative to untreated cells = 1) ([1]; Time 5) | CMA activity (fluorescent puncta per cell, relative to untreated cells = 1) ([1]; Time 10) | CMA activity (fluorescent puncta per cell, relative to untreated cells = 1) ([1]; Time 20) | CMA activity (fluorescent puncta per cell, relative to untreated cells = 1) ([1]; Time 30) | half-life at 3 μM [2] [min] | CLint(mic) [2] [µL/min/mg] | Remaining (T = 60 min) [2] [%] | CLint scaled at 3 μM [2] [mL/min/kg] |
| --- | --- | --- | --- | --- | --- | --- | --- | --- |
| CC(=O)Nc1ccc(C2=Nc3ccc(Cl)cc3OC2)cc1 [CA77, reference compound] | 2.667 | 3.331 | 5.005 | 5.471 | 34 | 40.8 | 25.9 | 36.7 |
| CC(=O)Nc1ccc(-c2cnc3cc(Cl)ccc3n2)cc1 [CA77.1, N-(4-(6-chloroquinoxalin-2-yl)phenyl)acetamide] | 2.53 | 3.365 | 5.858 | 5.889 | 20.6 | 67.2 | 10.8 | 60.5 |
